The record followed here is patent US20250195673A1 (priority 2020, published 2025).

The target of the experiment is human NTSR1 (Homo sapiens, UniProt P30989).
Sequence of human NTSR1 (P30989 whole entry): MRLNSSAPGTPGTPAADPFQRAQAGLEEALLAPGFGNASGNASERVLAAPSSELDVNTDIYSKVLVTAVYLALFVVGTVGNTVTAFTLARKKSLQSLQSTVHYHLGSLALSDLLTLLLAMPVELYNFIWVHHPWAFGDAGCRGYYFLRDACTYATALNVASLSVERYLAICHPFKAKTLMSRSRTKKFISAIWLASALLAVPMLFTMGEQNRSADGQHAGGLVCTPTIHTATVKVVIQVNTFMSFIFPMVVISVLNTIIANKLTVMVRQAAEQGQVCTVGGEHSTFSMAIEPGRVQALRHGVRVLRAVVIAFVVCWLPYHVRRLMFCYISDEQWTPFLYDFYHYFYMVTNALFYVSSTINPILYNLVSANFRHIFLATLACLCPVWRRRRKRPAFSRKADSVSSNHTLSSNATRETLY

For murine transferrin [mTf], the IP1 accumulation entry is “not”.
